Measured values taken from patent US6737383B1, “Herbicidal oxadiazolidines” (priority 1999, dated 2004).

How the values were obtained:
bedstraw = assay: Test B pre/postemergence bedstraw; type: in vivo, Galium aparine
In short: (§1)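 Test chemicals in a non-phytotoxic solvent mixture with surfactant were sprayed preemergence onto planted seeds and postemergence onto plants 2 to 18 cm tall (1- to 4-leaf stage). After twelve to sixteen days in a greenhouse, injury was visually rated against untreated controls from 0 (no effect) to 10 (complete control).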

blackgrass = assay: Test B pre/postemergence blackgrass; type: in vivo, Alopecurus myosuroides
In short: as §1

surinam grass = assay: Test B pre/postemergence surinam grass; type: in vivo, Brachiaria decumbens
In short: as §1

cocklebur = assay: Test B pre/postemergence cocklebur; type: in vivo, Xanthium strumarium
In short: as §1

corn = assay: Test B pre/postemergence corn; type: in vivo, Zea mays
In short: as §1

giant foxtail = assay: Test B pre/postemergence giant foxtail; type: in vivo, Setaria faberii
In short: as §1

morningglory = assay: Test B pre/postemergence morningglory; type: in vivo, Ipomoea hederacea
In short: as §1

pigweed = assay: Test B pre/postemergence pigweed; type: in vivo, Amaranthus retroflexus
In short: as §1

rape = assay: Test B pre/postemergence rape; type: in vivo, Brassica napus
In short: as §1

soybean = assay: Test B pre/postemergence soybean; type: in vivo, Glycine max
In short: as §1

sugar beet = assay: Test B pre/postemergence sugar beet; type: in vivo, Beta vulgaris
In short: as §1

velvetleaf = assay: Test B pre/postemergence velvetleaf; type: in vivo, Abutilon theophrasti
In short: as §1

purple nutsedge = assay: Test B pre/postemergence purple nutsedge; type: in vivo, Cyperus rotundus
In short: as §1

smallflower flatsedge = assay: Test B flood test smallflower flatsedge; type: in vivo, Cyperus difformis
In short: (§2)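 Read-out is a visual response score from 0 (no effect) to 10 (complete control), assigned by comparison with untreated controls. Treatment was applied at the 2-leaf stage, and plants stayed in the greenhouse for twelve to sixteen days before scoring.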

duck salad = assay: Test B flood test duck salad; type: in vivo, Heteranthera limosa
In short: as §2

bamyardgrass = assay: Test B flood test barnyardgrass; type: in vivo, Echinochloa crus-galli
In short: as §2

[1] = Preemergence, Rate 62 g/ha, scale of 0 to 10 where 0 is no effect and 10 is complete control
[2] = Preemergence, Rate 250 g/ha, scale of 0 to 10 where 0 is no effect and 10 is complete control
[3] = Preemergence, Rate 500 g/ha, scale of 0 to 10 where 0 is no effect and 10 is complete control
[4] = Rate 62 g/ha, Postemergence, scale of 0 to 10 where 0 is no effect and 10 is complete control
[5] = Rate 125 g/ha, Postemergence, scale 0 to 10
[6] = Rate 125 g/ha, Preemergence, scale of 0 to 10 where 0 is no effect and 10 is complete control
[7] = Rate 500 g/ha, Postemergence, scale 0 to 10
[8] = Rate 62 g/ha, headed Pre-emergence (flood test species), scale 0 to 10 (0 no effect, 10 complete control)
[9] = Rate 125 g/ha, Pre-emergence, flood test species, scale 0 to 10 where 0 is no effect and 10 is complete control
[10] = Rate 250 g/ha, Pre-emergence, flood-test species, scale 0 to 10, 0 is no effect, 10 is complete control
[11] = Rate 500 g/ha, Pre-emergence, flood test species, scale 0 to 10 (0 no effect, 10 complete control)

`C#CCn1c(=O)on(C(=O)N(c2ccc(F)cc2)C(C)C)c1=O` [Compound 212] was tested, and the “Bedstraw plant response rating” value (bedstraw; [1]) was 0, the “Bedstraw plant response rating” value (bedstraw; [2]) was 0 and the “Plant response rating, Bedstraw” value (bedstraw; [3]) was 10. For the same molecule, the “Bedstraw plant response rating” value (bedstraw; [4]) was 0, the “Bedstraw plant response rating” value (bedstraw; [5]) was 0 and the “Bedstraw plant response rating” value (bedstraw; [6]) was 0. For the same molecule, the “Plant response rating (0 to 10; 0 is no effect, 10 is complete control), Bedstraw” value (bedstraw; Rate 250 g/ha, Postemergence) was 2, the “Bedstraw plant response rating” value (bedstraw; [7]) was 7 and the “Blackgrass plant response rating” value (blackgrass; [1]) was 4. The “Blackgrass plant response rating” value (blackgrass; [2]) was 7, the “Plant response rating, Blackgrass” value (blackgrass; [3]) was 9 and the “Blackgrass plant response rating” value (blackgrass; [4]) was 6. For the same molecule, the “Blackgrass plant response rating” value (blackgrass; [5]) was 6, the “Blackgrass plant response rating” value (blackgrass; [6]) was 4 and the “Plant response rating (0 to 10; 0 is no effect, 10 is complete control), Blackgrass” value (blackgrass; Rate 250 g/ha, Postemergence) was 6. The “Blackgrass plant response rating” value (blackgrass; [7]) was 7, the “B. signalgrass plant response rating” value (surinam grass; [1]) was 0 and the “B. signalgrass plant response rating” value (surinam grass; Preemergence, Rate 250 g/ha, scale 0 to 10, 0 is no effect, 10 is complete control) was 5. For the same molecule, the “Plant response rating, B. signalgrass” value (surinam grass; [3]) was 5, the “B. signalgrass plant response rating” value (surinam grass; [4]) was 2 and the “B. signalgrass plant response rating” value (surinam grass; Rate 125 g/ha, Postemergence, scale 0 (no effect) to 10 (complete control)) was 4. The “B. signalgrass plant response rating” value (surinam grass; [6]) was 1, the “Plant response rating (0 to 10; 0 is no effect, 10 is complete control), B. signalgrass” value (surinam grass; Rate 250 g/ha, Postemergence) was 7 and the “B. signalgrass plant response rating” value (surinam grass; Rate 500 g/ha, Postemergence, scale 0 to 10, 0 no effect, 10 complete control) was 7. The “Cocklebur plant response rating” value (cocklebur; [1]) was 0, the “Cocklebur plant response rating” value (cocklebur; [2]) was 0 and the “Plant response rating, Cocklebur” value (cocklebur; [3]) was 0. For the same molecule, the “Cocklebur plant response rating” value (cocklebur; [4]) was 2, the “Cocklebur plant response rating” value (cocklebur; [5]) was 2 and the “Plant response rating (0 to 10; 0 is no effect, 10 is complete control), Cocklebur” value (cocklebur; Rate 250 g/ha, Postemergence) was 2. The “Cocklebur plant response rating” value (cocklebur; [7]) was 5, the “Corn plant response rating” value (corn; [1]) was 0 and the “Corn plant response rating” value (corn; [2]) was 0. The “Plant response rating, Corn” value (corn; [3]) was 0, the “Corn plant response rating” value (corn; [4]) was 0 and the “Corn plant response rating” value (corn; [5]) was 0. For the same molecule, the “Corn plant response rating” value (corn; [6]) was 0, the “Plant response rating (0 to 10; 0 is no effect, 10 is complete control), Corn” value (corn; Rate 250 g/ha, Postemergence) was 0 and the “Corn plant response rating” value (corn; [7]) was 0. The “Giant foxtail plant response rating” value (giant foxtail; [1]) was 2, the “Giant foxtail plant response rating” value (giant foxtail; [2]) was 9 and the “Plant response rating, Giant foxtail” value (giant foxtail; [3]) was 10. For the same molecule, the “Giant foxtail plant response rating” value (giant foxtail; [4]) was 4, the “Giant foxtail plant response rating” value (giant foxtail; [5]) was 6 and the “Giant foxtail plant response rating” value (giant foxtail; [6]) was 4. The “Plant response rating (0 to 10; 0 is no effect, 10 is complete control), Giant foxtail” value (giant foxtail; Rate 250 g/ha, Postemergence) was 6, the “Giant foxtail plant response rating” value (giant foxtail; [7]) was 9 and the “Morningglory plant response rating” value (morningglory; [1]) was 0. The “Morningglory plant response rating” value (morningglory; [2]) was 0, the “Plant response rating, Morningglory” value (morningglory; [3]) was 0 and the “Morningglory plant response rating” value (morningglory; [4]) was 2. The “Morningglory plant response rating” value (morningglory; [5]) was 3, the “Morningglory plant response rating” value (morningglory; [6]) was 0 and the “Plant response rating (0 to 10; 0 is no effect, 10 is complete control), Morningglory” value (morningglory; Rate 250 g/ha, Postemergence) was 4. The “Morningglory plant response rating” value (morningglory; [7]) was 8, the “Redroot pigweed plant response rating” value (pigweed; [1]) was 9 and the “Redroot pigweed plant response rating” value (pigweed; [2]) was 10. The “Plant response rating, Redroot pigweed” value (pigweed; [3]) was 10, the “Redroot pigweed plant response rating” value (pigweed; [4]) was 0 and the “Redroot pigweed plant response rating” value (pigweed; [5]) was 5. For the same molecule, the “Redroot pigweed plant response rating” value (pigweed; [6]) was 9, the “Redroot pigweed plant response rating” value (pigweed; [7]) was 7 and the “Rape plant response rating” value (rape; [1]) was 0. For the same molecule, the “Rape plant response rating” value (rape; [2]) was 6, the “Plant response rating, Rape” value (rape; [3]) was 8 and the “Rape plant response rating” value (rape; [4]) was 0. For the same molecule, the “Rape plant response rating” value (rape; [5]) was 0, the “Rape plant response rating” value (rape; [6]) was 0 and the “Plant response rating (0 to 10; 0 is no effect, 10 is complete control), Rape” value (rape; Rate 250 g/ha, Postemergence) was 0. For the same molecule, the “Rape plant response rating” value (rape; [7]) was 3, the “Soybean plant response rating” value (soybean; [1]) was 0 and the “Soybean plant response rating” value (soybean; [2]) was 0. The “Plant response rating, Soybean” value (soybean; [3]) was 0, the “Soybean plant response rating” value (soybean; [4]) was 1 and the “Soybean plant response rating” value (soybean; [5]) was 2. For the same molecule, the “Soybean plant response rating” value (soybean; [6]) was 0, the “Plant response rating (0 to 10; 0 is no effect, 10 is complete control), Soybean” value (soybean; Rate 250 g/ha, Postemergence) was 3 and the “Soybean plant response rating” value (soybean; [7]) was 4. The “Sugarbeets plant response rating” value (sugar beet; [1]) was 0, the “Sugarbeets plant response rating” value (sugar beet; [2]) was 5 and the “Plant response rating, Sugarbeets” value (sugar beet; [3]) was 8. The “Sugarbeets plant response rating” value (sugar beet; [4]) was 0, the “Sugarbeets plant response rating” value (sugar beet; [5]) was 0 and the “Sugarbeets plant response rating” value (sugar beet; [6]) was 5. For the same molecule, the “Plant response rating (0 to 10; 0 is no effect, 10 is complete control), Sugarbeets” value (sugar beet; Rate 250 g/ha, Postemergence) was 0, the “Sugarbeets plant response rating” value (sugar beet; [7]) was 5 and the “Velvetleaf plant response rating” value (velvetleaf; [1]) was 2. For the same molecule, the “Velvetleaf plant response rating” value (velvetleaf; [2]) was 5, the “Plant response rating, Velvetleaf” value (velvetleaf; [3]) was 5 and the “Velvetleaf plant response rating” value (velvetleaf; [4]) was 3. For the same molecule, the “Velvetleaf plant response rating” value (velvetleaf; [5]) was 4, the “Plant response rating (0 to 10; 0 is no effect, 10 is complete control), Velvetleaf” value (velvetleaf; Rate 250 g/ha, Postemergence) was 5 and the “Nutsedge plant response rating” value (purple nutsedge; [1]) was 0. The “Nutsedge plant response rating” value (purple nutsedge; [2]) was 0, the “Plant response rating, Nutsedge” value (purple nutsedge; [3]) was 0 and the “Nutsedge plant response rating” value (purple nutsedge; [4]) was 0. For the same molecule, the “Nutsedge plant response rating” value (purple nutsedge; [5]) was 0, the “Nutsedge plant response rating” value (purple nutsedge; [6]) was 0 and the “Plant response rating (0 to 10; 0 is no effect, 10 is complete control), Nutsedge” value (purple nutsedge; Rate 250 g/ha, Postemergence) was 0. The “Nutsedge plant response rating” value (purple nutsedge; [7]) was 0, the “S. Flatsedge plant response rating” value (smallflower flatsedge; [8]) was 0 and the “S. Flatsedge plant response rating” value (smallflower flatsedge; [9]) was 0. For the same molecule, the “S. Flatsedge plant response rating” value (smallflower flatsedge; [10]) was 0, the “S. Flatsedge plant response rating” value (smallflower flatsedge; [11]) was 0 and the “Ducksalad plant response rating” value (duck salad; [8]) was 0. For the same molecule, the “Ducksalad plant response rating” value (duck salad; [9]) was 0, the “Ducksalad plant response rating” value (duck salad; [10]) was 0 and the “Ducksalad plant response rating” value (duck salad; [11]) was 2. The “Barnyardgrass plant response rating” value (bamyardgrass; [8]) was 0, the “Barnyardgrass plant response rating” value (bamyardgrass; [9]) was 0 and the “Barnyardgrass plant response rating” value (bamyardgrass; [10]) was 0. The “Barnyardgrass plant response rating” value (bamyardgrass; [11]) was 0.
